# Data taken from ChEMBL document CHEMBL1201862, “PubChem BioAssay data set” (2004).
# Values joined by “and” are separate entries in the source; they are usually repeats but may differ in a detail not shown here. Identical values can stand only once.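 Method: 48-hour compound exposure of cells in 96-well plates, five concentrations, linear interpolation of endpoints. Here, GI50 denotes the concentration required for 50% inhibition of growth.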 Active and inactive are the calls of the source. Cut-off read from the data, not from the text of the source: active = GI50 up to about 1.1 µM and inactive = higher.
# Columns and labels:
# Test in all cases: NCI anticancer screen, dose series, 48 h
# SK-MEL-2 = test system: SK-MEL-2
# UACC-62 = test system: UACC-62
# RPMI-8226 = test system: RPMI-8226
# CCRF-CEM = test system: CCRF-CEM
# HOP-62 = test system: HOP-62
# SN12C = test system: SN12C
# SNB-19 = test system: SNB-19
# MDA-N = test system: MDA-N
# UO-31 = test system: UO-31
# NCI-H460 = test system: NCI-H460
# NCI-H226 = test system: NCI-H226
# SF-295 = test system: SF-295
# K562 = test system: K562
# COLO 205 = test system: COLO 205
# EKVX = test system: EKVX
# 786-0 = test system: 786-0
# OVCAR-5 = test system: OVCAR-5
# NCI/ADR-RES = test system: NCI/ADR-RES
# SF-539 = test system: SF-539
# Malme-3M = test system: Malme-3M
Compound,GI50 (SK-MEL-2),GI50 (UACC-62),GI50 (RPMI-8226),GI50 (CCRF-CEM),GI50 (HOP-62),GI50 (SN12C),GI50 (SNB-19),GI50 (MDA-N),GI50 (UO-31),GI50 (NCI-H460),GI50 (NCI-H226),GI50 (SF-295),GI50 (K562),GI50 (COLO 205),GI50 (EKVX),GI50 (786-0),GI50 (OVCAR-5),GI50 (NCI/ADR-RES),GI50 (SF-539),GI50 (Malme-3M)
O=C1/C(=C\c2cccs2)Oc2ccccc21,> 100 µM (inactive),75.2 µM (inactive),69.5 µM (inactive),57.7 µM (inactive),39.9 µM (inactive),> 100 µM (inactive),75.3 µM (inactive),> 100 µM (inactive),33 µM (inactive),53.1 µM (inactive),58.1 µM (inactive),74 µM (inactive),74.5 µM (inactive),75.3 µM (inactive),25.9 µM (inactive),77.6 µM (inactive),> 100 µM (inactive),54.7 µM (inactive),,
O=c1c(Br)cc2c(-c3ccccc3)c3cc(Br)c(O)c(Br)c3oc-2c1Br,,> 100 µM (inactive),> 100 µM (inactive),> 100 µM (inactive),> 100 µM (inactive),> 100 µM (inactive),> 100 µM (inactive),> 100 µM (inactive),> 100 µM (inactive),77.4 µM (inactive),> 100 µM (inactive),84.9 µM (inactive),> 100 µM (inactive),51.2 µM (inactive),> 100 µM (inactive),> 100 µM (inactive),> 100 µM (inactive),> 100 µM (inactive),39.5 µM (inactive),> 100 µM (inactive)
COc1ccccc1[C@@H]1CCC2CC[C@@H](c3ccccc3OC)[N+]21Cc1ccccc1 (some centres undefined),1.51 µM (inactive),,0.211 µM (active),1.73 µM (inactive),2.33 µM (inactive),2.54 µM (inactive),0.982 µM (active),0.632 µM (active),2.96 µM (inactive),,1.39 µM (inactive),2.33 µM (inactive),0.344 µM (active),0.44 µM (active),0.223 µM (active),1.94 µM (inactive),2.88 µM (inactive),13 µM (inactive),,2.3 µM (inactive)
COCc1cc2c(cc1/C(=C/[N+](=O)[O-])CS(=O)(=O)c1ccccc1)OCO2,,> 100 µM (inactive),> 100 µM (inactive),> 100 µM (inactive),> 100 µM (inactive),> 100 µM (inactive),,> 100 µM (inactive),> 100 µM (inactive),> 100 µM (inactive),> 100 µM (inactive),> 100 µM (inactive),> 100 µM (inactive),> 100 µM (inactive),> 100 µM (inactive),> 100 µM (inactive),> 100 µM (inactive),> 100 µM (inactive),> 100 µM (inactive),
O=C(Cc1nccc2c1[nH]c1ccccc12)OC1C#CCSCC#C/C=C\1 (centres undefined),,> 100 µM (inactive),> 100 µM (inactive),38.8 µM (inactive),> 100 µM (inactive),> 100 µM (inactive),> 100 µM (inactive),> 100 µM (inactive),71.4 µM (inactive),> 100 µM (inactive),> 100 µM (inactive),87.9 µM (inactive),43 µM (inactive),52.1 µM (inactive),64.4 µM (inactive),> 100 µM (inactive),,> 100 µM (inactive),> 100 µM (inactive),> 100 µM (inactive)
COc1ccc(N[S+]([O-])CCc2ccccc2)cc1 (centres undefined),,,> 100 µM (inactive),> 100 µM (inactive),> 100 µM (inactive),> 100 µM (inactive),> 100 µM (inactive),> 100 µM (inactive),> 100 µM (inactive),> 100 µM (inactive),> 100 µM (inactive),> 100 µM (inactive),73.3 µM (inactive),> 100 µM (inactive),> 100 µM (inactive),> 100 µM (inactive),> 100 µM (inactive),58.1 µM (inactive),> 100 µM (inactive),> 100 µM (inactive)
Cn1cnc2c(sc3nc4ccccc4n32)c1=N,> 100 µM (inactive),> 100 µM (inactive),> 100 µM (inactive),> 100 µM (inactive),> 100 µM (inactive),,> 100 µM (inactive),> 100 µM (inactive),> 100 µM (inactive),,> 100 µM (inactive),68.1 µM (inactive),,> 100 µM (inactive),52.2 µM (inactive),> 100 µM (inactive),> 100 µM (inactive),> 100 µM (inactive),> 100 µM (inactive),> 100 µM (inactive)
CCOC(=O)C1(O)C(=O)C2=C3C(=O)OC(C4OC(=O)c5c(c(O)c(O)c(O)c5C31)-c1c(cc(O)c(O)c1O)C(=O)OC1COC(=O)c3cc(O)c(O)c(O)c3-c3c(cc(O)c(O)c3O)C(=O)OC14)[C@@H]2O (some centres undefined),25.7 µM (inactive),20 µM (inactive),28.5 µM (inactive),17.2 µM (inactive),36.5 µM (inactive),17 µM (inactive),> 100 µM (inactive),14.9 µM (inactive),26.4 µM (inactive),29.3 µM (inactive),16.5 µM (inactive),19.1 µM (inactive),20.7 µM (inactive),15.7 µM (inactive),13.4 µM (inactive),19.2 µM (inactive),15.9 µM (inactive),27.6 µM (inactive),,26.9 µM (inactive)
CC(=O)Oc1ccc(-c2cc3ccccc3oc2=O)cc1OC(C)=O,38.5 µM (inactive),,12.7 µM (inactive),5.3 µM (inactive),43.7 µM (inactive),53.7 µM (inactive),31.6 µM (inactive),25.8 µM (inactive),10.9 µM (inactive),22.4 µM (inactive),53.1 µM (inactive),28.2 µM (inactive),27.5 µM (inactive),43.5 µM (inactive),21.8 µM (inactive),21.7 µM (inactive),15.9 µM (inactive),21.3 µM (inactive),21.6 µM (inactive),51.4 µM (inactive)
[O-][S+](CCc1ccccc1)Nc1ccccc1 (centres undefined),,,> 100 µM (inactive),> 100 µM (inactive),> 100 µM (inactive),> 100 µM (inactive),> 100 µM (inactive),> 100 µM (inactive),> 100 µM (inactive),> 100 µM (inactive),> 100 µM (inactive),> 100 µM (inactive),> 100 µM (inactive),> 100 µM (inactive),> 100 µM (inactive),> 100 µM (inactive),> 100 µM (inactive),58.5 µM (inactive),> 100 µM (inactive),> 100 µM (inactive)
COc1cccc(N(CN2C(=O)CCC2OC)C(C)=O)c1 (centres undefined),> 100 µM (inactive),> 100 µM (inactive),> 100 µM (inactive),> 100 µM (inactive),> 100 µM (inactive),> 100 µM (inactive),> 100 µM (inactive),> 100 µM (inactive),> 100 µM (inactive),> 100 µM (inactive),> 100 µM (inactive),> 100 µM (inactive),> 100 µM (inactive),> 100 µM (inactive),,> 100 µM (inactive),> 100 µM (inactive),> 100 µM (inactive),> 100 µM (inactive),
CC1OC(OC2C(OC(=O)[C@]34CCC(C)(C)C[C@H]3C3=CC[C@@H]5[C@@]6(C)CC[C@H](OC7OC(CO)C(O)C(O)C7OC7OC(CO)C(O)C(O)C7O)C(C)(C)[C@@H]6CC[C@@]5(C)[C@]3(C)CC4)OCC(O)C2O)C(O)C(O)C1OC1OCC(O)C(OC2OCC(O)C(O)C2O)C1O (some centres undefined),3.01 µM (inactive) and 2.9 µM (inactive),2.21 µM (inactive) and 2.5 µM (inactive),3.98 µM (inactive) and 4.43 µM (inactive),11.3 µM (inactive) and 13.2 µM (inactive),,2.15 µM (inactive),7.89 µM (inactive) and 7.41 µM (inactive),1.64 µM (inactive) and 1.88 µM (inactive),1.88 µM (inactive) and 1.99 µM (inactive),15.7 µM (inactive) and 17.7 µM (inactive),3.57 µM (inactive) and 3.8 µM (inactive),3.44 µM (inactive) and 3.78 µM (inactive),4.6 µM (inactive) and 3.77 µM (inactive),1.78 µM (inactive) and 2.43 µM (inactive),2.44 µM (inactive) and 2.97 µM (inactive),6.67 µM (inactive) and 5.46 µM (inactive),4.86 µM (inactive) and 5.37 µM (inactive),5.81 µM (inactive) and 3.99 µM (inactive),29.2 µM (inactive) and 19.5 µM (inactive),2.49 µM (inactive) and 2.52 µM (inactive)
CSc1ncnc2c1ncn2CCC(=O)OC(C)(C)C,,,> 100 µM (inactive),> 100 µM (inactive),> 100 µM (inactive),> 100 µM (inactive),> 100 µM (inactive),> 100 µM (inactive),> 100 µM (inactive),> 100 µM (inactive),> 100 µM (inactive),> 100 µM (inactive),> 100 µM (inactive),> 100 µM (inactive),> 100 µM (inactive),> 100 µM (inactive),> 100 µM (inactive),> 100 µM (inactive),> 100 µM (inactive),> 100 µM (inactive)
N#CCN1c2ccccc2CCC1Cl (centres undefined),,> 10 µM (inactive),> 10 µM (inactive),> 10 µM (inactive),> 10 µM (inactive),> 10 µM (inactive),> 10 µM (inactive),> 10 µM (inactive),> 10 µM (inactive),> 10 µM (inactive),> 10 µM (inactive),> 10 µM (inactive),> 10 µM (inactive),> 10 µM (inactive),> 10 µM (inactive),> 10 µM (inactive),> 10 µM (inactive),> 10 µM (inactive),> 10 µM (inactive),> 10 µM (inactive)
